Measured values reported in ChEMBL document CHEMBL1255475, “Mutant prevention concentrations of four carbapenems against gram-negative rods” (2010).
Values after ≈ are worked out from the molar mass of the structure shown.

Key:
Pseudomonas aeruginosa [1] = assay: Ratio of mutant prevention concentration to minimum Inhibitory concentration for Pseudomonas aeruginosa P369; format: functional
Pseudomonas aeruginosa [2] = assay: Ratio of mutant prevention concentration to minimum Inhibitory concentration for Pseudomonas aeruginosa P373; format: functional
Pseudomonas aeruginosa [3] = assay: Ratio of mutant prevention concentration to minimum Inhibitory concentration for Pseudomonas aeruginosa P320; format: functional
Pseudomonas aeruginosa [4] = assay: Ratio of mutant prevention concentration to minimum Inhibitory concentration for Pseudomonas aeruginosa P352; format: functional
Pseudomonas aeruginosa [5] = assay: Ratio of mutant prevention concentration to minimum Inhibitory concentration for Pseudomonas aeruginosa P363; format: functional
Pseudomonas aeruginosa [6] = assay: Ratio of mutant prevention concentration to minimum Inhibitory concentration for Pseudomonas aeruginosa P358; format: functional
Pseudomonas aeruginosa [7] = assay: Ratio of mutant prevention concentration to minimum Inhibitory concentration for Pseudomonas aeruginosa P376; format: functional
Acinetobacter baumannii [8] = assay: Ratio of mutant prevention concentration to minimum Inhibitory concentration for Acinetobacter baumannii A864; format: functional
Acinetobacter baumannii [9] = assay: Ratio of mutant prevention concentration to minimum Inhibitory concentration for Acinetobacter baumannii A912; format: functional
Acinetobacter baumannii [10] = assay: Ratio of mutant prevention concentration to minimum Inhibitory concentration for Acinetobacter baumannii A849; format: functional
Acinetobacter baumannii [11] = assay: Ratio of mutant prevention concentration to minimum Inhibitory concentration for Acinetobacter baumannii A884; format: functional
Acinetobacter baumannii [12] = assay: Ratio of mutant prevention concentration to minimum Inhibitory concentration for Acinetobacter baumannii A928; format: functional
Acinetobacter baumannii [13] = assay: Ratio of mutant prevention concentration to minimum Inhibitory concentration for Acinetobacter baumannii A908; format: functional
Acinetobacter baumannii [14] = assay: Ratio of mutant prevention concentration to minimum Inhibitory concentration for Acinetobacter baumannii A931; format: functional
Acinetobacter baumannii [15] = assay: Ratio of mutant prevention concentration to minimum Inhibitory concentration for Acinetobacter baumannii A897; format: functional
Acinetobacter baumannii [16] = assay: Ratio of mutant prevention concentration to minimum Inhibitory concentration for Acinetobacter baumannii A901; format: functional
Acinetobacter baumannii [17] = assay: Antibacterial activity against Acinetobacter baumannii A908 after 24 hrs by agar dilution method; format: functional; details: A908, 24 h
Acinetobacter baumannii [18] = assay: Antibacterial activity against Acinetobacter baumannii A929 after 24 hrs by agar dilution method; format: functional; details: A929, 24 h
Acinetobacter baumannii [19] = assay: Antibacterial activity against Acinetobacter baumannii A885 after 24 hrs by agar dilution method; format: functional; details: A885, 24 h
Acinetobacter baumannii [20] = assay: Antibacterial activity against Acinetobacter baumannii A891 after 24 hrs by agar dilution method; format: functional; details: A891, 24 h
Escherichia coli [21] = assay: Antibacterial activity against beta-lactamase-negative Escherichia coli E344 after 24 hrs by agar dilution method; details: E344, 24 h
Escherichia coli [22] = assay: Antibacterial activity against beta-lactamase-negative Escherichia coli E346 after 24 hrs by agar dilution method; details: E346, 24 h
Escherichia coli [23] = assay: Antibacterial activity against beta-lactamase-negative Escherichia coli E347 after 24 hrs by agar dilution method; details: E347, 24 h
Escherichia coli [24] = assay: Antibacterial activity against beta-lactamase-negative Escherichia coli E408 after 24 hrs by agar dilution method; details: E408, 24 h
Escherichia coli [25] = assay: Antibacterial activity against beta-lactamase-negative Escherichia coli E409 after 24 hrs by agar dilution method; details: E409, 24 h
Escherichia coli [26] = assay: Antibacterial activity against beta-lactamase-positive ESBL-positive Escherichia coli E458 after 24 hrs by agar dilution method; details: E458, 24 h
Escherichia coli [27] = assay: Antibacterial activity against beta-lactamase-positive ESBL-negative Escherichia coli E415 after 24 hrs by agar dilution method; details: E415, 24 h
Escherichia coli [28] = assay: Antibacterial activity against beta-lactamase-positive ESBL-negative Escherichia coli E437 after 24 hrs by agar dilution method; details: E437, 24 h
Escherichia coli [29] = assay: Antibacterial activity against beta-lactamase-negative Escherichia coli E425 after 24 hrs by agar dilution method; details: E425, 24 h
Escherichia coli [30] = assay: Antibacterial activity against beta-lactamase-positive ESBL-positive Escherichia coli E446 after 24 hrs by agar dilution method; details: E446, 24 h
Escherichia coli [31] = assay: Antibacterial activity against beta-lactamase-positive ESBL-positive Escherichia coli E450 after 24 hrs by agar dilution method; details: E450, 24 h
Escherichia coli [32] = assay: Antibacterial activity against beta-lactamase-positive ESBL-positive Escherichia coli E459 after 24 hrs by agar dilution method; details: E459, 24 h
Escherichia coli [33] = assay: Antibacterial activity against beta-lactamase-positive ESBL-positive Escherichia coli E465 after 24 hrs by agar dilution method; details: E465, 24 h
Escherichia coli [34] = assay: Antibacterial activity against beta-lactamase-positive ESBL-negative Escherichia coli E484 after 24 hrs by agar dilution method; format: functional; details: E484, 24 h
Klebsiella pneumoniae [35] = assay: Antibacterial activity against beta-lactamase-positive ESBL-negative Klebsiella pneumoniae E509 after 24 hrs by agar dilution method; format: functional; details: E509, 24 h
Klebsiella pneumoniae [36] = assay: Antibacterial activity against beta-lactamase-positive ESBL-negative Klebsiella pneumoniae E472 after 24 hrs by agar dilution method; format: functional; details: E472, 24 h
Klebsiella pneumoniae [37] = assay: Antibacterial activity against beta-lactamase-positive ESBL-positive Klebsiella pneumoniae E475 after 24 hrs by agar dilution method; format: functional; details: E475, 24 h
Klebsiella pneumoniae [38] = assay: Antibacterial activity against beta-lactamase-positive ESBL-negative Klebsiella pneumoniae E477 after 24 hrs by agar dilution method; format: functional; details: E477, 24 h
Klebsiella pneumoniae [39] = assay: Antibacterial activity against beta-lactamase-negative Klebsiella pneumoniae E420 after 24 hrs by agar dilution method; format: functional; details: E420, 24 h
Klebsiella pneumoniae [40] = assay: Antibacterial activity against beta-lactamase-positive ESBL-positive Klebsiella pneumoniae E453 after 24 hrs by agar dilution method; format: functional; details: E453, 24 h
Klebsiella pneumoniae [41] = assay: Antibacterial activity against beta-lactamase-positive ESBL-negative Klebsiella pneumoniae E507 after 24 hrs by agar dilution method; format: functional; details: E507, 24 h
Klebsiella pneumoniae [42] = assay: Antibacterial activity against beta-lactamase-positive ESBL-negative Klebsiella pneumoniae E511 after 24 hrs by agar dilution method; format: functional; details: E511, 24 h
Pseudomonas aeruginosa [43] = assay: Antibacterial activity against Pseudomonas aeruginosa P356 after 24 hrs by agar dilution method; details: P356, 24 h
Pseudomonas aeruginosa [44] = assay: Antibacterial activity against Pseudomonas aeruginosa P369 after 24 hrs by agar dilution method; details: P369, 24 h
Pseudomonas aeruginosa [45] = assay: Antibacterial activity against Pseudomonas aeruginosa P335 after 24 hrs by agar dilution method; details: P335, 24 h
Pseudomonas aeruginosa [46] = assay: Antibacterial activity against Pseudomonas aeruginosa P320 after 24 hrs by agar dilution method; details: P320, 24 h
Pseudomonas aeruginosa [47] = assay: Antibacterial activity against Pseudomonas aeruginosa P334 after 24 hrs by agar dilution method; details: P334, 24 h
Pseudomonas aeruginosa [48] = assay: Antibacterial activity against Pseudomonas aeruginosa P365 after 24 hrs by agar dilution method; details: P365, 24 h
Pseudomonas aeruginosa [49] = assay: Antibacterial activity against Pseudomonas aeruginosa P341 after 24 hrs by agar dilution method; details: P341, 24 h
Pseudomonas aeruginosa [50] = assay: Antibacterial activity against Pseudomonas aeruginosa P376 after 24 hrs by agar dilution method; details: P376, 24 h
Acinetobacter baumannii [51] = assay: Antibacterial activity against Acinetobacter baumannii A865 after 24 hrs by agar dilution method; format: functional; details: A865, 24 h
Acinetobacter baumannii [52] = assay: Antibacterial activity against Acinetobacter baumannii A911 after 24 hrs by agar dilution method; format: functional; details: A911, 24 h
Acinetobacter baumannii [53] = assay: Antibacterial activity against Acinetobacter baumannii A892 after 24 hrs by agar dilution method; format: functional; details: A892, 24 h

`C[C@@H](O)[C@H]1C(=O)N2C(C(=O)O)=C(S[C@@H]3CN[C@H](CNS(N)(=O)=O)C3)[C@H](C)[C@H]12` [DORIPENEM] was tested, and the Ratio (Pseudomonas aeruginosa [1]) was 8, the Ratio (Pseudomonas aeruginosa [2]) was >8 and the Ratio (Pseudomonas aeruginosa [3]) was >8. It also gave a Ratio (Pseudomonas aeruginosa [4]) of 2, a Ratio (Pseudomonas aeruginosa [5]) of 16 and a Ratio (Pseudomonas aeruginosa [6]) of 8. The Ratio (Pseudomonas aeruginosa [7]) was >16, the Ratio (Acinetobacter baumannii [8]) was 8 and the Ratio (Acinetobacter baumannii [9]) was 2. The Ratio (Acinetobacter baumannii [10]) was 4, the Ratio (Acinetobacter baumannii [11]) was 2 and the Ratio (Acinetobacter baumannii [12]) was 2. For the same compound, the Ratio (Acinetobacter baumannii [13]) was 2, the Ratio (Acinetobacter baumannii [14]) was 2 and the Ratio (Acinetobacter baumannii [15]) was 2. The Ratio (Acinetobacter baumannii [16]) was 2.
`C[C@@H](O)[C@H]1C(=O)N2C(C(=O)O)=C(SCCNC=N)C[C@H]12` [IMIPENEM ANHYDROUS] gave an MIC (Acinetobacter baumannii [17]) of 0.25 µg/mL (≈ 0.835 µM), an MIC (Acinetobacter baumannii [18]) of 0.5 µg/mL (≈ 1.67 µM) and an MIC (Acinetobacter baumannii [19]) of 2 µg/mL (≈ 6.68 µM). It also gave an MIC (Acinetobacter baumannii [20]) of 0.5 µg/mL (≈ 1.67 µM), an MIC (Escherichia coli [21]) of 0.125 µg/mL (≈ 0.418 µM) and an MIC (Escherichia coli [22]) of 0.125 µg/mL (≈ 0.418 µM). It also gave an MIC (Escherichia coli [23]) of 0.25 µg/mL (≈ 0.835 µM), an MIC (Escherichia coli [24]) of 0.125 µg/mL (≈ 0.418 µM) and an MIC (Escherichia coli [25]) of 0.25 µg/mL (≈ 0.835 µM). The MIC (Escherichia coli [26]) was 0.125 µg/mL (≈ 0.418 µM), the MIC (Escherichia coli [27]) was 0.125 µg/mL (≈ 0.418 µM) and the MIC (Escherichia coli [28]) was 0.25 µg/mL (≈ 0.835 µM). For the same compound, the MIC (Escherichia coli [29]) was 0.25 µg/mL (≈ 0.835 µM), the MIC (Escherichia coli [30]) was 0.25 µg/mL (≈ 0.835 µM) and the MIC (Escherichia coli [31]) was 0.125 µg/mL (≈ 0.418 µM). The MIC (Escherichia coli [32]) was 0.25 µg/mL (≈ 0.835 µM), the MIC (Escherichia coli [33]) was 0.25 µg/mL (≈ 0.835 µM) and the MIC (Escherichia coli [34]) was 4 µg/mL (≈ 13.4 µM). For the same compound, the MIC (Klebsiella pneumoniae [35]) was 8 µg/mL (≈ 26.7 µM), the MIC (Klebsiella pneumoniae [36]) was 8 µg/mL (≈ 26.7 µM) and the MIC (Klebsiella pneumoniae [37]) was 4 µg/mL (≈ 13.4 µM). The MIC (Klebsiella pneumoniae [38]) was 4 µg/mL (≈ 13.4 µM), the MIC (Klebsiella pneumoniae [39]) was 0.25 µg/mL (≈ 0.835 µM) and the MIC (Klebsiella pneumoniae [40]) was 0.125 µg/mL (≈ 0.418 µM). It also gave an MIC (Klebsiella pneumoniae [41]) of 2 µg/mL (≈ 6.68 µM), an MIC (Klebsiella pneumoniae [42]) of 2 µg/mL (≈ 6.68 µM) and an MIC (Pseudomonas aeruginosa [43]) of 2 µg/mL (≈ 6.68 µM). It also gave an MIC (Pseudomonas aeruginosa [44]) of 2 µg/mL (≈ 6.68 µM), an MIC (Pseudomonas aeruginosa [45]) of 1 µg/mL (≈ 3.34 µM) and an MIC (Pseudomonas aeruginosa [46]) of 2 µg/mL (≈ 6.68 µM). For the same compound, the MIC (Pseudomonas aeruginosa [47]) was 1 µg/mL (≈ 3.34 µM), the MIC (Pseudomonas aeruginosa [48]) was 2 µg/mL (≈ 6.68 µM) and the MIC (Pseudomonas aeruginosa [49]) was 4 µg/mL (≈ 13.4 µM). For the same compound, the MIC (Pseudomonas aeruginosa [50]) was 4 µg/mL (≈ 13.4 µM), the MIC (Acinetobacter baumannii [51]) was 8 µg/mL (≈ 26.7 µM) and the MIC (Acinetobacter baumannii [52]) was 2 µg/mL (≈ 6.68 µM). The MIC (Acinetobacter baumannii [53]) was 4 µg/mL (≈ 13.4 µM).
